# Experimental data: patent US20230114107A1, “COMBINATION ANTI-CANCER THERAPIES WITH INDUCERS OF IRON-DEPENDENT CELLULAR DISASSEMBLY” (Flagship Pioneering Innovations V, Inc., priority 2019, published 2023)
# Legend:
# [1] = test system: Jurkat T cell leukemia cells; test: Viability of Jurkat T cell leukemia cells after treatment; format: cell-based; conditions: various doses, 24 hours; FIG. 5A
# [2] = test system: NFKB reporter in THP1-Dual cells; test: NFKB reporter activity in THP1-Dual monocytes co-cultured with treated A20 cells; format: cell-based, human
# Description: A20 B-cell leukemia cells were treated with either control (DMSO) or various doses of RSL3, for 24 hours prior to co-culture with THP1-Dual cells for an additional 24 hours. RSL3 was purchased from Selleckchem (Houston, Tex.) and dissolved in DMSO. Subsequently, the THP1 supernatants were assessed for NFKB or IRF reporter activity.
# A20 cells were acquired from ATCC and THP1-Dual cells acquired from InvivoGen (San Diego, Calif.). Both cell types were cultured in 96-well plates for the duration of the assay. 50,000 A20 cells were plated 24 hours prior to dosing with RSL3, with a final DMSO concentration of 0.5%. 24 hours post-treatment, THP1-Dual cells (25,000 cells/well) were added to the A20 cells. 24 hours later, 30 μl of supernatant was mixed with either 200 μl QuantiBlue (InvivoGen, San Diego, Calif.) or 50 μl QuantiLuc and absorbance or luminescence was recorded on a Molecular Devices plate reader.
# A20 lymphoma cells were treated with various doses (e.g. 0.002, 0.005, 0.014, 0.041, 0.123, 0.370, 1.111, 3.333 and 10 μM) of a GPX4 inhibitor (RSL3, ML162 or ML210) in the presence or absence of 1 μM Ferrostatin-1 for 24 hours. ML162 was purchased from Cayman Chemical Company Inc and resuspended in DMSO. ML210 was purchased from Sigma-Aldrich and resuspended in DMSO. A20 lymphoma cells were also treated with DMSO as a negative control. After treatment with DMSO or a GPX4 inhibitor for 24 hours, the A20 lymphoma cells were co-cultured with THP1-Dual cells for an additional 24 hours. Subsequently, the THP1 supernatant was assessed for NFKB reporter activity. A20 cells were acquired from ATCC and THP1-Dual cells were acquired from InvivoGen (San Diego, Calif.). Both cell types were cultured in 96-well plates for the duration of the assay.
# [3] = test system: A20 B-cell leukemia cells; test: Viability of A20 B-cell leukemia / lymphoma cells after treatment; format: cell-based; conditions: 24 hours
smiles,measurement,setting,value
COC(=O)c1ccc([C@H]2c3[nH]c4ccccc4c3C[C@H](C(=O)OC)N2C(=O)CCl)cc1 [RSL3],viability of Jurkat T cell leukemia cells,[1],negatively affected the viability
same,NFKB signaling in THP1 monocytes,"[2]; A20 cells treated 24 hours, co-culture 24 hours, vs DMSO, FIG. 6B",elicited
same,"NFKB activity in THP1 cells, dose dependence","[2]; A20 lymphoma cells treated with GPX4 inhibitor, FIG. 10B, 11B, 12B",increased NFKB activity in THP1 cells in a dose dependent manner
same,"viability of A20 lymphoma cells, dose dependence","[3]; GPX4 inhibitor 0.002-10 μM, FIG. 10A, 11A, 12A",decreased viability of the cells in a dose dependent manner
same,viability of A20 B cell leukemia cells,"[3]; various doses, FIG. 6A",negatively affected the viability
